From patent US20240237643A1, “COMPOSITIONS WITH VIRUCIDAL AND/OR ANTIVIRAL ACTIVITY” (priority 2020, published 2024)

Experiments:
Type in all cases: cell-based
[1] = system: Coronavirus (MHV-3); test: Virucidal activity, quantitative suspension test DIN EN 14476
Procedure: (§1) Testing was conducted over a period of 1 to 10 minutes. Activity against the following viruses was determined: • Coronavirus (MHV-3) • Influenza virus (H1N1) • Herpes simplex virus (HV) • Human respiratory syncytial virus (HRSV)
(§2) In this context (+) means that more than 99.99% of all viruses were inactivated; this is equivalent to a reduction factor of 10,000.

[2] = system: Influenza virus (H1N1); test: as above
[3] = system: Herpes simplex virus (HV); test: as above
[4] = system: Human respiratory syncytial virus (HRSV); test: as above
[5] = system: all virus types (MHV-3, H1N1, HV, HRSV); test: Virucidal activity DIN EN 14476, summary over all virus types; settings: concentration of 0.1 wt.-percent
Procedure: as §1, §2

[6] = 0.1 wt.-percent in water, 1 min
[7] = 0.1 wt.-percent in water, 10 min
[8] = 10 wt.-percent in water, 10 min

SMILES: CC(C)=CCCC(C)=CCCC(C)=CCO [3,7,11-trimethyl-2,6,10-dodecantrien-1-ol]
- Virucidal activity MHV-3 [1, 6]: (+) ((+) means that more than 99.99% of all viruses were inactivated; this is equivalent to a reduction factor of 10,000)
- Virucidal activity MHV-3 [1, 7]: (+) ((+) means that more than 99.99% of all viruses were inactivated; this is equivalent to a reduction factor of 10,000)
- Virucidal activity MHV-3 ([1]; 1 wt.-percent in water, 1 min): (+) ((+) means that more than 99.99% of all viruses were inactivated; this is equivalent to a reduction factor of 10,000)
- Virucidal activity MHV-3 ([1]; 1 wt.-percent in water, 10 min): (+) ((+) means that more than 99.99% of all viruses were inactivated; this is equivalent to a reduction factor of 10,000)
- Virucidal activity MHV-3 ([1]; 10 wt.-percent in water, 1 min): (+) ((+) means that more than 99.99% of all viruses were inactivated; this is equivalent to a reduction factor of 10,000)
- Virucidal activity MHV-3 [1, 8]: (+) ((+) means that more than 99.99% of all viruses were inactivated; this is equivalent to a reduction factor of 10,000)
- Virucidal activity H1N1 [2, 6]: (+) ((+) means that more than 99.99% of all viruses were inactivated; this is equivalent to a reduction factor of 10,000)
- Virucidal activity H1N1 [2, 7]: (+) ((+) means that more than 99.99% of all viruses were inactivated; this is equivalent to a reduction factor of 10,000)
- Virucidal activity H1N1 ([2]; 1 wt.-percent in water, 1 min): (+) ((+) means that more than 99.99% of all viruses were inactivated; this is equivalent to a reduction factor of 10,000)
- Virucidal activity H1N1 ([2]; 1 wt.-percent in water, 10 min): (+) ((+) means that more than 99.99% of all viruses were inactivated; this is equivalent to a reduction factor of 10,000)
- Virucidal activity H1N1 ([2]; 10 wt.-percent in water, 1 min): (+) ((+) means that more than 99.99% of all viruses were inactivated; this is equivalent to a reduction factor of 10,000)
- Virucidal activity H1N1 [2, 8]: (+) ((+) means that more than 99.99% of all viruses were inactivated; this is equivalent to a reduction factor of 10,000)
- Virucidal activity HV [3, 6]: (+) ((+) means that more than 99.99% of all viruses were inactivated; this is equivalent to a reduction factor of 10,000)
- Virucidal activity HV [3, 7]: (+) ((+) means that more than 99.99% of all viruses were inactivated; this is equivalent to a reduction factor of 10,000)
- Virucidal activity HV ([3]; 1 wt.-percent in water, 1 min): (+) ((+) means that more than 99.99% of all viruses were inactivated; this is equivalent to a reduction factor of 10,000)
- Virucidal activity HV ([3]; 1 wt.-percent in water, 10 min): (+) ((+) means that more than 99.99% of all viruses were inactivated; this is equivalent to a reduction factor of 10,000)
- Virucidal activity HV ([3]; 10 wt.-percent in water, 1 min): (+) ((+) means that more than 99.99% of all viruses were inactivated; this is equivalent to a reduction factor of 10,000)
- Virucidal activity HV [3, 8]: (+) ((+) means that more than 99.99% of all viruses were inactivated; this is equivalent to a reduction factor of 10,000)
- Virucidal activity HRSV [4, 6]: (+) ((+) means that more than 99.99% of all viruses were inactivated; this is equivalent to a reduction factor of 10,000)
- Virucidal activity HRSV [4, 7]: (+) ((+) means that more than 99.99% of all viruses were inactivated; this is equivalent to a reduction factor of 10,000)
- Virucidal activity HRSV ([4]; 1 wt.-percent in water, 1 min): (+) ((+) means that more than 99.99% of all viruses were inactivated; this is equivalent to a reduction factor of 10,000)
- Virucidal activity HRSV ([4]; 1 wt.-percent in water, 10 min): (+) ((+) means that more than 99.99% of all viruses were inactivated; this is equivalent to a reduction factor of 10,000)
- Virucidal activity HRSV ([4]; 10 wt.-percent in water, 1 min): (+) ((+) means that more than 99.99% of all viruses were inactivated; this is equivalent to a reduction factor of 10,000)
- Virucidal activity HRSV [4, 8]: (+) ((+) means that more than 99.99% of all viruses were inactivated; this is equivalent to a reduction factor of 10,000)
- reduction factor [5]: 10,000
